Laboratory results from patent US9475840B2, “Protease-resistant compounds useful as shuttles through the blood-brain barrier and shuttle-cargo constructs” (UNIVERSITAT DE BARCELONA, priority 2012, dated 2016).
Where two headings read alike, the source gives them in different places. Where a SMILES comes first, the peptide text is derived from it. [ ]: non-standard residue; d: D form. Quantum Dot = not defined here

How the values were obtained:
[1] = tested on: co-culture of brain endothelial cells and astrocytes; assay: Transport across the BBB, in vitro co-culture cell assay (transwell); conditions: — = not detected in acceptor compartment; for Papp (×10^6) cm/s: apparent permeability, 2 h at 37° C., Ringer-HEPES buffer pH 7.4, triplicate, 50 μM or 0.75 nM (particles); for Transport (%) (2 h): percentage of transport after a 2 hours assay
Source text: (§1) The evaluation method chosen to test the compounds of formula (I) and (II) of the invention was a cell-based assay consisting of a co-culture of brain endothelial cells and astrocytes, which allows to evaluate or to predict the transport of compounds through the BBB. […] Under these conditions endothelial cells are able to reach the confluence mimicking the BBB. […] Is commonly used model for permeation studies and toxicity of compounds across the BBB.
(§2) The co-culture assay was used to determine the capacity of the constructs cargo-shuttle to cross the BBB. […] The permeability tests were performed in Ringer-HEPES buffer at pH 7.4. The compound of interest was dissolved in the buffer to the desired concentration.
(§3) Once the endothelial cells were confluent on the filters (transwells) these were washed with Ringer-HEPES buffer. The acceptor well was filled with 800 μL of Ringer-HEPES buffer and the donor well with 200 μL of the solution of the compound to be studied. The system was incubated at 37° C. and 5% CO2 for 2 h. After that time the content of the acceptor and donor compartments were analyzed by HPLC, ICP or fluorescence measurements (depending on cargo anchored to the shuttle). Transport was also confirmed by mass spectrometry MALDI-TOF.
(§4) The apparent permeability was calculated using the following equation: Papp=(dQ/dt)*(1/A)*(1/C0)(cm/s)
(§5) Where (dQ/dt) is the amount of compound present in the compartment acceptor function of time (nmol/s). A is the area of the filter (cm2) and C0 is the initial concentration of the compound applied in the donor compartment (nmol/mL).
(§6) The values of permeability equal to or higher than 1×10-6 cm/s are considered exceptionally good, and values equal to or higher than 0.1×10-6 cm/s are considered good.

[2] = as above; conditions: pH 7.4
Source text: as §1, §2, §3, §4, §5, §6

[3] = Stability of the shuttle in human serum; conditions: for half-life: human, serum
Procedure: At a range of times, 50 μL aliquots were collected to which methanol was added in order to precipitate the serum proteins. The samples were centrifuged, filtered and analysed by HPLC to determine the degree of degradation of the BBB-shuttle

[4] = tested on: co-culture of brain endothelial cells and astrocytes
Source text: as §1, §2, §3, §4, §5, §6

| Molecule | Papp (×10^6) cm/s [1] | Transport (%) (2 h) [1] | Papp [2] | also measured |
| --- | --- | --- | --- | --- |
| Rhodamine b-L-Lys(Antibody)-D-Pro-D-Trp-D-Val-D-Pro-D-Ser-D-Trp-D-Met-D-Pro-D-Pro-D-Arg-D-His-D-Thr-NH2 [Example 17] | 0.16 ± 0.10 (×10^6) cm/s |  |  |  |
| Antibody Avastin partially reduced and trapped with Ellman's reagent: bevacizumab (Avastin) antibody cargo, partially reduced and trapped with Ellman's reagent | 0.054 ± 0.005 (×10^6) cm/s | 0.064 ± 0.006% |  |  |
| CSCC[C@@H](NC(=O)[C@@H](Cc1c[nH]c2ccccc12)NC(=O)[C@@H](CO)NC(=O)[C@H]1CCCN1C(=O)[C@H](NC(=O)[C@@H](Cc1c[nH]c2ccccc12)NC(=O)[C@H]1CCCN1C(=O)[C@@H](N)Cc1ccc(O)c(O)c1)C(C)C)C(=O)N1CCC[C@@H]1C(=O)N1CCC[C@@H]1C(=O)N[C@H](CCCNC(=N)N)C(=O)N[C@H](Cc1c[nH]cn1)C(=O)N[C@@H](C(N)=O)[C@H](C)O [Example 8, L-dopa-D-Pro-D-Trp-D-Val-D-Pro-D-Ser-D-Trp-D-Met-D-Pro-D-Pro-D-Arg-D-His-D-Thr-NH2] (HELM PEPTIDE1{[N[C@@H](Cc1ccc(O)c(O)c1)C(=O)[*:2]].[dP].[dW].[dV].[dP].[dS].[dW].[dM].[dP].[dP].[dR].[dH].[dT].[am]}$$$$V2.0) |  | 10.1 ± 1.3% | 8.46 ± 2.1 ×10⁻⁶ cm/s |  |
| CSCC[C@@H](NC(=O)[C@@H](Cc1c[nH]c2ccccc12)NC(=O)[C@@H](CO)NC(=O)[C@H]1CCCN1C(=O)[C@H](NC(=O)[C@@H](Cc1c[nH]c2ccccc12)NC(=O)[C@H]1CCCN1C(=O)c1ccc2c(c1)C(=O)OC21c2ccc(O)cc2Oc2cc(O)ccc21)C(C)C)C(=O)N1CCC[C@@H]1C(=O)N1CCC[C@@H]1C(=O)N[C@H](CCCNC(=N)N)C(=O)N[C@H](Cc1c[nH]cn1)C(=O)N[C@@H](C(N)=O)[C@H](C)O [Example 9, 5(6)-Carboxyfluorescein-D-Pro-D-Trp-D-Val-D-Pro-D-Ser-D-Trp-D-Met-D-Pro-D-Pro-D-Arg-D-His-D-Thr-NH2] (HELM PEPTIDE1{[O=C1OC2(c3ccc(O)cc3Oc3cc(O)ccc32)c2ccc(C(=O)[*:2])cc21].[dP].[dW].[dV].[dP].[dS].[dW].[dM].[dP].[dP].[dR].[dH].[dT].[am]}$$$$V2.0) |  | 17.1 ± 2.6% | 16.2 ± 1.3 ×10⁻⁶ cm/s |  |
| CSCC[C@@H](NC(=O)[C@@H](Cc1c[nH]c2ccccc12)NC(=O)[C@@H](CO)NC(=O)[C@H]1CCCN1C(=O)[C@H](NC(=O)[C@@H](Cc1c[nH]c2ccccc12)NC(=O)[C@H]1CCCN1)C(C)C)C(=O)N1CCC[C@@H]1C(=O)N1CCC[C@@H]1C(=O)N[C@H](CCCNC(=N)N)C(=O)N[C@H](Cc1c[nH]cn1)C(=O)N[C@@H](C(N)=O)[C@H](C)O [Example 1, H-D-Pro-D-Trp-D-Val-D-Pro-D-Ser-D-Trp-D-Met-D-Pro-D-Pro-D-Arg-D-His-D-Thr-NH2] (HELM PEPTIDE1{[dP].[dW].[dV].[dP].[dS].[dW].[dM].[dP].[dP].[dR].[dH].[dT].[am]}$$$$V2.0) |  | 25.1 ± 3% | 21.4 ± 2.1 ×10⁻⁶ cm/s | half-life [3]: > 1440 min |
| Quantum Dot-Gly-D-Pro-D-Trp-D-Val-D-Pro-D-Ser-D-Trp-D-Met-D-Pro-D-Pro-D-Arg-D-His-D-Thr-NH2 ({Quantum Dot}-G[dP][dW][dV][dP][dS][dW][dM][dP][dP][dR][dH][dT]-NH2; reading uncertain; also: quantum dot nanoparticle conjugate, printed as Quantum Dot-Gly-D-Pro-D-Trp-D-Val-D-Pro-D-Ser-D-Trp-D-Met-D-Pro-D-Pro-D-Arg-D-His-D-Thr-NH2) [Example 10] | 0.27 ± 0.03 (×10^6) cm/s | 0.31 ± 0.02% |  |  |
| CSCC[C@@H](NC(=O)[C@H]1CCCN1C(=O)[C@H]1CCCN1C(=O)[C@@H](CCCNC(=N)N)NC(=O)[C@@H](Cc1c[nH]cn1)NC(=O)[C@H](N)[C@H](C)O)C(=O)N[C@H](Cc1c[nH]c2ccccc12)C(=O)N[C@H](CO)C(=O)N1CCC[C@@H]1C(=O)N[C@@H](C(=O)N[C@H](Cc1c[nH]c2ccccc12)C(=O)N1CCC[C@@H]1C(N)=O)C(C)C [compound 2, H-D-Thr-D-His-D-Arg-D-Pro-D-Pro-D-Met-D-Trp-D-Ser-D-Pro-D-Val-D-Trp-D-Pro-NH2, reference compound] (HELM PEPTIDE1{[dT].[dH].[dR].[dP].[dP].[dM].[dW].[dS].[dP].[dV].[dW].[dP].[am]}$$$$V2.0) |  | 11.7 ± 6.4% | 9.9 ± 1.6 ×10⁻⁶ cm/s | half-life [3]: > 1440 min |
| nanoparticle superparamagnetic iron oxide (SPION)-Gly-D-Pro-D-Trp-D-Val-D-Pro-D-Ser-D-Trp-D-Met-D-Pro-D-Pro-D-Arg-D-His-D-Thr-NH2 ({SPION}-G[dP][dW][dV][dP][dS][dW][dM][dP][dP][dR][dH][dT]-NH2) [Example 11] | 0.19 ± 0.07 (×10^6) cm/s | 0.22 ± 0.05% |  |  |
| CSCC[C@@H](NC(=O)[C@@H](Cc1c[nH]c2ccccc12)NC(=O)[C@@H](CO)NC(=O)[C@H]1CCCN1C(=O)[C@H](NC(=O)[C@@H](Cc1c[nH]c2ccccc12)NC(=O)[C@H]1CCCN1C(=O)[C@@H](CCCCN)NC(=O)[C@@H](CCCCN)NC(=O)[C@@H](CC(C)C)NC(=O)[C@H](NC(=O)[C@@H](Cc1ccc2ccccc2c1)NC(=O)[C@@H](Cc1ccccc1)N(C)C(=O)[C@@H](C)N)C(C)C)C(C)C)C(=O)N1CCC[C@@H]1C(=O)N1CCC[C@@H]1C(=O)N[C@H](CCCNC(=N)N)C(=O)N[C@H](Cc1c[nH]cn1)C(=O)N[C@@H](C(N)=O)[C@H](C)O [Example 12, H-D-Ala-D-NMePhe-D-Nal(2)-D-Val-D-Leu-D-Lys-D-Lys-D-Pro-D-Trp-D-Val-D-Pro-D-Ser-D-Trp-D-Met-D-Pro-D-Pro-D-Arg-D-His-D-Thr-NH2] (HELM PEPTIDE1{[dA].[CN([C@H](Cc1ccccc1)C(=O)[*:2])[*:1]].[O=C([C@@H](Cc1ccc2ccccc2c1)N[*:1])[*:2]].[dV].[dL].[dK].[dK].[dP].[dW].[dV].[dP].[dS].[dW].[dM].[dP].[dP].[dR].[dH].[dT].[am]}$$$$V2.0) |  | 0.2 ± 0.04% | 0.14 ± 0.01 ×10⁻⁶ cm/s |  |
| Rhodamine b-L-Lys(Antibody)-D-Pro-D-Trp-D-Val-D-Pro-D-Ser-D-Trp-D-Met-D-Pro-D-Pro-D-Arg-D-His-D-Thr-NH2 [Example 18] | 0.18 ± 0.05 (×10^6) cm/s |  |  |  |
| Rhodamine b-L-Lys(Antibody)-D-Pro-D-Trp-D-Val-D-Pro-D-Ser-D-Trp-D-Met-D-Pro-D-Pro-D-Arg-D-His-D-Thr-NH2 [Example 20] | 0.36 ± 019 (×10^6) cm/s |  |  |  |
| H-Gly-D-Pro-D-Trp-D-Val-D-Pro-D-Ser-D-Trp-D-Met-D-Pro-D-Pro-D-Arg-D-His-D-Thr-NH2 [Example 2] |  |  |  | Transport (%) (2 h) [4]: 22.3 ± 2.6%; Papp (×10^6) cm/s ([4]; pH 7.4): 19.4 ± 1.8 (×10^6) cm/s |
| H-THRPPMWSPVWP-NH2 [compound 1, H-L-Thr-L-His-L-Arg-L-Pro-L-Pro-L-Met-L-Trp-L-Ser-L-Pro-L-Val-L-Trp-L-Pro-NH2, reference compound] |  | 14.9 ± 2.5% | 12.5 ± 5.2 ×10⁻⁶ cm/s | Degradation / half-life time in human serum (in words) ([3]; 150 μM, 37° C., 90% human serum): rapidly degraded; half-life [3]: < 60 min |
